Results reported in US20070208087A1, “Compounds, compositions and methods for the treatment of inflammatory diseases” (priority 2001, published 2007).
Values joined by “and” are separate entries in the source; they are usually repeats but may differ in a detail not shown here. Equal entries are not always repeated. Where two headings read alike, the source gives them in different places.

What was measured:
Type in all cases: cell-based
microglia = experiment: Ranking of NO release inhibition (Example 12); conditions: Microglia, ranking table
Source text: The bis- and tris-dihydroxyaryl compounds were ranked in order of effectiveness for the inhibition of NO release as set out in Table 8.

[1] = tested on: EOC 13.31 microglial cells; experiment: NO release inhibition screen in LPS/IFNγ stimulated microglia, Griess reaction at 48 hours (Example 7); conditions: for μM NO release Avg / % inhibition / inhibition at 50 µM: 50 uM + 10 μg/ml LPS/10 ng/ml IFNγ, 48 hours; for % inhibition: 50 µM; for inhibition of NO release, in words: 50 uM, LPS/IFNγ stimulated microglia; for inhibition at 50 µM: Microglia, 48 h
Protocol: In this experiment, additional bis- and tris-dihydroxyaryl compounds were screened for their ability to inhibit nitric oxide release from microglial cells. Microglial cells stimulated with LPS/IFNγ release nitric oxide. […] This is a continuation of screening experiments. EOC 13.31 microglial cells were plated into 96 well plates. At 24 hours and at confluency, cells were treated with 10 μg/ml LPS/10 ng/ml IFNγ+50 uM bis- and tris-dihydroxyaryl compounds.

[2] = tested on: TNF-α release from microglia; experiment: TNF-α release from LPS/IFNγ stimulated microglia, TNF-α ELISA (Example 11); conditions: for % inhibition: individual replicates; for inhibition at 50 µM: Microglia; for TNF-α ELISA raw reading (not NO; the printed μM unit is unsupported): 3 replicates
Protocol: Also, bis- and tris-dihydroxyaryl compound's ability to inhibit NO release strongly supports their interference with the inflammatory cascade and utlimately inhibition of inflammation. Microglia cells were plated at 1×10^5 cells/ml into 96 well plates. At day three, they were treated with 50 μM bis- and tris-dihydroxyaryl compound for 1 hour and then exposed to 10 μg/ml LPS+10 ng/ml IFNγ for 24 hours. 10 μl of media was removed and stored at −80° until TNF-α ELISA assays were performed. Samples were diluted 1:50 before running the TNF-α ELISA (kit commercially available from Sigma).

[3] = tested on: EOC 13.31 microglia cells; experiment: Inhibition of NO release from microglia following 24 hours pretreatment (Example 10); conditions: for inhibition at 50 µM: Microglia
Protocol: This experiment was designed to determine if pretreatment for 24 hours with bis- and tris-dihydroxyaryl compounds changes NO inhibition previously observed with concurrent exposure of bis- and tris-dihydroxyaryl compounds. […] This study seeks to determine if pretreatment with bis- and tris-dihydroxyaryl compounds increases NO release inhibition. EOC 13.31 microglia cells were plated at 1×10^6 cells/ml in 96 well plates. After 48 hours, confluent cells were exposed to 50 μM compound (stock 10 mM in DMSO) prepared in fresh cell culture media. After 24 hours, 10 μg/ml LPS and 10 ng/ml IFNγ was added to wells directly without a media change. Cells were incubated for a further 48 hours and nitric oxide release was measured using the Griess Reaction.

[4] = tested on: EOC 13.31 microglia cells; experiment: NO release inhibition in LPS/IFNγ stimulated microglia, concurrent treatment, Griess reaction at 24 hours (Example 6); conditions: 24 hours; for NO release, Avg: 50 μM; for inhibition at 50 µM: Microglia
Protocol: The purpose of this experiment was to screen compounds 3, 4, 21, 26, 51, 52, 66, and 78 for their ability to inhibit Nitric oxide release from microglia. […] EOC 13.31 microglia cells were plated into 96 well plates for 24 hours. Confluent cells were treated with 50 μM of the bis- and tris-dihydroxyaryl compounds either with or without stimulation at 1 pg/ml LPS, and 1 ng/ml IFNγ. NO release was measured at 24 hours using the Griess reaction which is a spectrophotometric measure of NO release (reagents from Promega).

[5] = single replicates, read-out: % inhibition
[6] = 50 uM compound, TNF-α release, 10 ug LPS and 10 ng IFNγ, 24 hours, 50 µM
[7] = 24 h, 50 uM compound, TNF-α release, 10 ug LPS and 10 ng IFNγ, 24 hours, read-out: Avg % Inhibition
[8] = 50 uM compound, TNF-α release, 10 ug LPS and 10 ng IFNγ, 24 hours
[9] = 50 uM compound, 10 ug LPS and 10 ng IFNγ, 24 hours
[10] = 50 μM pretreatment, read-out: inhibition of NO release following pretreatment
[11] = 50 uM pretreatment 24 hours, then LPS/IFNγ 48 hours, single replicates
[12] = 50 uM pretreatment 24 hours, then LPS/IFNγ 48 hours, read-out: Avg % Inhibition
[13] = 50 uM pretreatment 24 hours, then LPS/IFNγ 48 hours, single replicates, read-out: % inhibition

| SMILES | inhibition at 50 µM (microglia) | μM NO release Avg [1] | % inhibition ([1]; single replicates) | inhibition at 50 µM ([1]; read-out: Avg. % Inhibition) | inhibition at 50 µM [1, 5] | % inhibition [2, 6] | Avg % Inhibition [2, 8] | TNF-α ELISA raw reading (not NO; the printed μM unit is unsupported) [2, 9] | also measured |
| --- | --- | --- | --- | --- | --- | --- | --- | --- | --- |
| Oc1ccc(CN[C@@H]2CCCC[C@H]2NCc2ccc(O)c(O)c2)cc1O (relative stereo) [Compound 12, N,N′-bis(3,4-dihydroxybenzyl)-trans-1,2-diaminocyclohexane] | 32% | 18.976 µM | 26.72% and 33.23% | 31.6% | 34.9% | 15.81% and 25.24% and 10.54% |  |  | inhibition of NO release, in words [1]: effective inhibitors of NO release; inhibition at 50 µM [2, 7]: 17.2% |
| O=C(c1ccc(O)c(O)c1)C(O)c1ccc(O)c(O)c1 (stereo not drawn) [Compound 1, 3,4,3′,4′-tetrahydroxybenzoin] | 18% | 22.038 µM | 20.29% and 18.62% | 18.4% | 16.4% | −16.55% and −17.04% and −18.19% |  |  | inhibition at 50 µM [2, 7]: -17.3% |
| Oc1ccc(Cc2ccc(O)c(O)c2)cc1O [Compound 3-2] |  |  |  |  |  | 28.11% and 32.65% and 27.48% | 29.41% | 0.593 µM and 0.627 µM and 0.623 µM |  |
| Oc1ccc(CCc2ccc(O)c(O)c2)cc1O [Compound 4-3] |  |  |  |  |  | 88.39% and 91.14% and 90.14% | 89.89% | 0.177 µM and 0.185 µM and 0.199 µM | inhibition of TNF-α release ([2]; 50 μM for 1 hour, then 10 μg/ml LPS + 10 ng/ml IFNγ for 24 hours): 89% |
| Cc1nc(-c2ccc(O)c(O)c2)cc(-c2ccc(O)c(O)c2)c1C#N [Compound 8, 4,6-bis(3,4-dihydroxyphenyl)-3-cyano-2-methylpyridine] | 92% | 25.265 µM | 8.03% and 2.30% and 9.14% | 6.49% |  |  |  |  |  |
| Oc1ccc(CN2CCN(Cc3ccc(O)c(O)c3)CC2)cc1O [Compound 9, 1,4-bis(3,4-dihydroxybenzyl)piperazine] | 3% | 26.299 µM | −0.57% (2×) and 9.14% | 2.66% |  |  |  |  |  |
| CN1C2CCC1C(Cc1ccc(O)c(O)c1)C(=O)C2Cc1ccc(O)c(O)c1 (stereo not drawn) [Compound 19, 2,4-bis(3,4-dihydroxybenzyl)-3-tropinone] | 4% | 25.828 µM | 5.75% and 3.45% | 4.41% | 4.02% |  |  |  | inhibition at 50 µM [3, 10]: > 75% |
| CN1C2CCC1C(Cc1ccc(O)c(O)c1)C(=O)C2Cc1ccc(O)c(O)c1 (stereo not drawn) [Compound 19-2] |  |  |  |  |  | 7.78% and 8.44% and 12.05% | 9.42% | 0.730 µM and 0.708 µM and 0.734 µM | Avg % Inhibition ([3]; 50 uM pretreatment 24 hours, then LPS/IFNγ 48 hours): 82.93%; % inhibition [3, 11]: 73.11% and 91.80% and 83.87%; OD values (printed under head μM NO release) [3, 11]: 0.135 and 0.161 and 0.195; μM NO release [3, 11]: 1.620 µM and 3.188 µM and 5.313 µM |
| O=C(NCc1ccc(O)c(O)c1)C(=Cc1ccc(O)c(O)c1)NC(=O)c1ccc(O)c(O)c1 [Compound 21-2] |  |  |  |  |  | −25.92% and −23.45% and −20.16% | −23.18% | 0.924 µM and 0.904 µM and 0.939 µM |  |
| O=C(c1ccc(O)c(O)c1)N1CCN(C(=O)c2ccc(O)c(O)c2)CC1 [Compound 23, 1,4-bis(3,4-dihydroxybenzoyl)piperazine] | 13% | 23.394 µM | 13.60% and 9.70% | 13.4% | 16.9% | −23.78% and −15.89% and −17.96% |  |  | inhibition at 50 µM [2, 7]: -19.2% |
| O=C(Nc1ccc(O)c(O)c1)c1ccc(O)c(O)c1 [Compound 51, 3,4-dihydroxybenzoic acid 3,4-dihydroxyanilide] |  |  |  |  |  |  |  |  | NO release, Avg ([4]; Compound + LPS/IFNγ): 20.6633 µM; NO release, Avg ([4]; Compound Only (without LPS/IFNγ)): 1.2500 µM; inhibition at 50 µM ([4]; Compound + LPS/IFNγ, read-out: % inhibition of NO release): -11%; inhibition at 50 µM ([4]; Table 2 summary, LPS/IFNγ, read-out: % Inhibition (summary of inhibition of NO release)): -11%; % inhibition [3, 11]: 47.81% and 59.20%; inhibition at 50 µM [3, 12]: 56%; inhibition at 50 µM [3, 13]: 61.1% |
| O=C(Nc1ccc(O)c(O)c1)c1ccc(O)c(O)c1 [Compound 51-1] |  |  |  |  |  | −17.57% and −12.94% and −13.42% |  | 0.880 µM and 0.883 µM and 0.909 µM | Avg % Inhibition [2, 6]: −14.64% |
| O=C(Nc1ccc(O)c(O)c1)c1ccc(O)c(O)c1 [Compound 51-4] |  |  |  |  |  | −20.13% and −17.25% and −11.34% |  | 0.907 µM and 0.870 µM and 0.925 µM | Avg % Inhibition [2, 6]: −16.24% |
| O=C(C=Cc1ccc(O)c(O)c1)NCc1ccc(O)c(O)c1 [Compound 61, 3,4-dihydroxycinnamic acid 3,4-dihydroxybenzylamide] | 21% | 21.285 µM | 19.18% and 24.19% | 21.2% | 20.3% | −3.40% and −17.04% and −7.51% |  |  | inhibition of NO release, in words [1]: effective inhibitors of NO release; inhibition at 50 µM [2, 7]: -9.32% |
| O=C(CCC(=O)Nc1ccc(O)c(O)c1)Nc1ccc(O)c(O)c1 [Compound 66-2] |  |  |  |  |  | −14.08% and −17.70% and −9.32% | −13.70% | 0.889 µM and 0.838 µM and 0.867 µM |  |
| O=C(Nc1ccc(O)c(O)c1)Nc1ccc(O)c(O)c1 [Compound 76, 1,3-bis(3,4-dihydroxyphenyl)urea] | 14% | 23.745 µM | 11.52% and 12.60% | 14.4% | 19.1% |  |  |  | % inhibition [3, 11]: 75.64% and 78.81%; inhibition at 50 µM [3, 12]: 76.3%; inhibition at 50 µM [3, 13]: 74.4%; inhibition at 50 µM [3, 10]: > 75% |
| O=C(Nc1ccc(O)c(O)c1)Nc1ccc(O)c(O)c1 [Compound 76-2] |  |  |  |  |  | −8.66% and −11.12% and −9.64% | −9.81% | 0.849 µM and 0.840 µM and 0.834 µM |  |
| O=C(NCc1ccc(O)c(O)c1)Nc1ccc(O)c(O)c1 [Compound 77, 1-(3,4-dihydroxyphenyl)-3-(3,4-dihydroxybenzyl)urea] | 12% | 24.398 µM | 9.89% | 12.1% | 14.2% |  |  |  | % inhibition [3, 11]: 99.39%; inhibition at 50 µM [3, 12]: 96.8%; inhibition at 50 µM [3, 13]: 91.8%; inhibition at 50 µM [3, 10]: > 75% |
| O=C(NCc1ccc(O)c(O)c1)Nc1ccc(O)c(O)c1 [Compound 77-1] |  |  |  |  |  | 4.66% and 4.16% and −1.10% | 2.58% | 0.756 µM and 0.788 µM and 0.753 µM |  |
| C[C@@H]1C[C@H]2[C@@H]3CCC4=CC(=O)C=C[C@]4(C)[C@@]3(F)[C@@H](O)C[C@]2(C)[C@@]1(O)C(=O)CO [Dexamethasone, reference compound] |  |  |  |  |  |  |  |  | inhibition at 50 µM ([2]; 50 μM for 1 hour, then 10 μg/ml LPS + 10 ng/ml IFNγ for 24 hours, read-out: inhibition of TNF-α release): 72.4% |
